The source of these data is patent US20230365576A1, “BRM Targeting Compounds And Associated Methods Of Use” (Prelude Therapeutics Incorporated, priority 2022, published 2023).

The structures appear in SMILES notation.

In assay [1] the target is T1, SMARCA4 (Homo sapiens, UniProt P51532).
T1 construct: SMARCA4-HiBiT knock-in Hela monoclonal cell (CS3023226) were purchased from Promega; host or cells: HeLa (CRISPR HiBiT knock-in monoclonal line, heterozygous)
Description: SMARCA4 HiBiT degradation assay in HeLa cells. Format: cell-based. As to conditions: 18 hours; for Dmax: HeLa. Here is the method: (§1) Example A. SMARCA2 HiBiT and SMARCA4 HiBiT Degradation Assay
(§2) Preparation of SMARCA2/4-HiBiT Knock-In Cells
(§3) HiBiT peptide knock-in of SMARCA2 in LgBiT expressing HEK293T cells was performed by CRISPR-mediated tagging system as described Promega. The homozygous HiBiT knock-in on c-terminus SMARCA2 was confirmed by sanger sequence. SMARCA2-HiBiT knock-in Hela monoclonal cell (CS302366) and SMARCA4-HiBiT knock-in Hela monoclonal cell (CS3023226) were purchased from Promega. The heterozygous HiBiT-knock-in was confirmed by sanger sequence in both SMARCA2-HiBiT and SMARCA4-HiBiT monoclonal cells.
(§4) SMARCA2 HiBiT and SMARCA4 HiBiT Degradation Assay in HeLa Cells
(§5) Compounds were dissolved in DMSO to make 10 mM stock and 3-fold series dilutions were further conducted keeping the highest concentration 10 μM. NCIH1693 and NCIH520 cells were maintained in PRMI 1640 medium (Corning Cellgro, Catalog #:10-040-CV) supplemented with 10% v/v FBS (GE Healthcare, Catalog #: SH30910.03) by splitting 1:3 twice a week.
(§6) Dispense 10 ul aliquot of prepared Hela-SMARCA2-HiBiT or Hela-SMARCA4-HiBiT cells (1:1 ratio of cells:Trypan Blue (#1450013, Bio-Rad)) onto cell counting slide (#145-0011, Bio-Rad) and obtain cell density and cell viability using cell counter (TC20, Bio-Rad). Remove appropriate volume of resuspended cells from culture flask to accommodate 2500 cells/well @ 20 μL/well. Transfer Hela-HiBiT cells to 50 mL conical (#430290, Corning). Spin down at 1000 rpm for 5 min using tabletop centrifuge (SPINCHRON 15, Beckman). Discard supernatant and resuspend cell pellet in modified EMEM (#30-2003, ATCC) cell culture media containing 10% FBS (F2422-500ML, Sigma), and 1X Penicillin/Streptomycin (200 g/L) (30-002-CI, Corning) to a cell density of 125,000 cells/mL. Dispense 20 μL of resuspended Hela-HiBit cells per well in 384-well TC treated plate (#12-565-343, Thermo Scientific) using standard cassette (#50950372, Thermo Scientific) on Multidrop Combi (#5840310, Thermo Scientific) inside laminar flow cabinet. Dispense test compounds onto plates using digital liquid dispenser (D300E, Tecan). Incubate plates in humidified tissue culture incubator @37° C. for 18 hours. Add 20 μL of prepared Nano-Glo® HiBiT Lytic detection buffer (N3050, Promega) to each well of 384-well plate using small tube cassette (#24073295, Thermo Scientific) on Multidrop Combi, incubate @ RT for 30-60 min. Read plates on microplate reader (Envision 2105, PerkinElmer) using 384 well Ultra-Sensitive luminescence mode. Raw data files and compound information reports are swept into centralized data lake and deconvoluted using automated scripts designed by TetraScience, Inc. Data analysis, curve-fitting and reporting done in Dotmatics Informatics Suite using Screening Ultra module.
For orientation: HiBiT is a short tag that completes a luciferase, so light tracks the accessible tagged protein.

For assay [2], the target named is T2, SMARCA2 (Homo sapiens, UniProt P51531).
T2 construct: SMARCA2-HiBiT knock-in Hela monoclonal cell (CS302366); host or cells: HeLa (CRISPR HiBiT knock-in monoclonal line, heterozygous)
T2 sequence (P51531 whole entry): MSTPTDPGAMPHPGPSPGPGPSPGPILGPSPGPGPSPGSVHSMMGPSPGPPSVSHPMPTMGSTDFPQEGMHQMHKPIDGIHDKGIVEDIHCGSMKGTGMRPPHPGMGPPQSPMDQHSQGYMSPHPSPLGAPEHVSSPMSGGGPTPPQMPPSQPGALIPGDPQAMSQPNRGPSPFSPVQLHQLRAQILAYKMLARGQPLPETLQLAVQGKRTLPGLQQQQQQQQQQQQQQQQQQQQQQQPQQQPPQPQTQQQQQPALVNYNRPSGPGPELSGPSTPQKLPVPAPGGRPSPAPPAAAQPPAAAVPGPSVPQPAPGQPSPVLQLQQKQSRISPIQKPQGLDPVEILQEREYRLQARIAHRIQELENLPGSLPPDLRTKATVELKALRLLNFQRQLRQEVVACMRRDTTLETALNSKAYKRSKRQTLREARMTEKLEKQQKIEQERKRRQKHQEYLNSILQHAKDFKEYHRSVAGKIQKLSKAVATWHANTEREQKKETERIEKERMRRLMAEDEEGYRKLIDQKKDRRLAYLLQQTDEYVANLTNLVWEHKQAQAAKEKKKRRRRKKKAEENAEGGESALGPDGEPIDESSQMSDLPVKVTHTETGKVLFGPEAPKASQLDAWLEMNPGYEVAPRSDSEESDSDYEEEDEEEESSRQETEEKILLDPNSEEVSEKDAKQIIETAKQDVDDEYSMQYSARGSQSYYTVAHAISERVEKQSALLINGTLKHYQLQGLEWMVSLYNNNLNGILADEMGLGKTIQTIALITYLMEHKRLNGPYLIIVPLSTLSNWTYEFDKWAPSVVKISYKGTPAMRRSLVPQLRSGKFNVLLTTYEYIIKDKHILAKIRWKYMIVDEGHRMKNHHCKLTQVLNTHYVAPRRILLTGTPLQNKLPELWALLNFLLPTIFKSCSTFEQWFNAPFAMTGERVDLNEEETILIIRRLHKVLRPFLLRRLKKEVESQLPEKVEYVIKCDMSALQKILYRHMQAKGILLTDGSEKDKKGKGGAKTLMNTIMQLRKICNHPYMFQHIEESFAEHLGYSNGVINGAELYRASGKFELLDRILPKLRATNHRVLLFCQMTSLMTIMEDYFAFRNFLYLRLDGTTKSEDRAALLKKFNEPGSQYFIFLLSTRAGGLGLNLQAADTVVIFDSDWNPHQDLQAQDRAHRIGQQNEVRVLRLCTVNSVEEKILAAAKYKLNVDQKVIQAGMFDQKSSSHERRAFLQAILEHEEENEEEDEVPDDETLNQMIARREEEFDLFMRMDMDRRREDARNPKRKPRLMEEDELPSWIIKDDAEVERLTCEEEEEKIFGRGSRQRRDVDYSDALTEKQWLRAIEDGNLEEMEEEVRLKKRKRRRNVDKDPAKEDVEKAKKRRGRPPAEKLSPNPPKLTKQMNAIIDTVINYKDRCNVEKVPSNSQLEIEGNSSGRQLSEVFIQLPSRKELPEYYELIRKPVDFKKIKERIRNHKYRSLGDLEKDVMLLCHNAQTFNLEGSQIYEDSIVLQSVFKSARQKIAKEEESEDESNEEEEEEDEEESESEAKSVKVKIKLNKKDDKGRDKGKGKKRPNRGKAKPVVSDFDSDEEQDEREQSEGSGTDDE
Kind of assay: SMARCA2 HiBiT degradation assay in HeLa cells. Format: cell-based. The note with it: 18 hours; for DC50: read-out: SMARCA2 IC50; for Dmax: HeLa. The method, then: as §1, §2, §3, §4, §5, §6

What is called Dmax is the greatest extent of degradation seen. High values mean a fuller loss of target, low ones a partial loss of target.

T1 sequence (P51532 whole entry): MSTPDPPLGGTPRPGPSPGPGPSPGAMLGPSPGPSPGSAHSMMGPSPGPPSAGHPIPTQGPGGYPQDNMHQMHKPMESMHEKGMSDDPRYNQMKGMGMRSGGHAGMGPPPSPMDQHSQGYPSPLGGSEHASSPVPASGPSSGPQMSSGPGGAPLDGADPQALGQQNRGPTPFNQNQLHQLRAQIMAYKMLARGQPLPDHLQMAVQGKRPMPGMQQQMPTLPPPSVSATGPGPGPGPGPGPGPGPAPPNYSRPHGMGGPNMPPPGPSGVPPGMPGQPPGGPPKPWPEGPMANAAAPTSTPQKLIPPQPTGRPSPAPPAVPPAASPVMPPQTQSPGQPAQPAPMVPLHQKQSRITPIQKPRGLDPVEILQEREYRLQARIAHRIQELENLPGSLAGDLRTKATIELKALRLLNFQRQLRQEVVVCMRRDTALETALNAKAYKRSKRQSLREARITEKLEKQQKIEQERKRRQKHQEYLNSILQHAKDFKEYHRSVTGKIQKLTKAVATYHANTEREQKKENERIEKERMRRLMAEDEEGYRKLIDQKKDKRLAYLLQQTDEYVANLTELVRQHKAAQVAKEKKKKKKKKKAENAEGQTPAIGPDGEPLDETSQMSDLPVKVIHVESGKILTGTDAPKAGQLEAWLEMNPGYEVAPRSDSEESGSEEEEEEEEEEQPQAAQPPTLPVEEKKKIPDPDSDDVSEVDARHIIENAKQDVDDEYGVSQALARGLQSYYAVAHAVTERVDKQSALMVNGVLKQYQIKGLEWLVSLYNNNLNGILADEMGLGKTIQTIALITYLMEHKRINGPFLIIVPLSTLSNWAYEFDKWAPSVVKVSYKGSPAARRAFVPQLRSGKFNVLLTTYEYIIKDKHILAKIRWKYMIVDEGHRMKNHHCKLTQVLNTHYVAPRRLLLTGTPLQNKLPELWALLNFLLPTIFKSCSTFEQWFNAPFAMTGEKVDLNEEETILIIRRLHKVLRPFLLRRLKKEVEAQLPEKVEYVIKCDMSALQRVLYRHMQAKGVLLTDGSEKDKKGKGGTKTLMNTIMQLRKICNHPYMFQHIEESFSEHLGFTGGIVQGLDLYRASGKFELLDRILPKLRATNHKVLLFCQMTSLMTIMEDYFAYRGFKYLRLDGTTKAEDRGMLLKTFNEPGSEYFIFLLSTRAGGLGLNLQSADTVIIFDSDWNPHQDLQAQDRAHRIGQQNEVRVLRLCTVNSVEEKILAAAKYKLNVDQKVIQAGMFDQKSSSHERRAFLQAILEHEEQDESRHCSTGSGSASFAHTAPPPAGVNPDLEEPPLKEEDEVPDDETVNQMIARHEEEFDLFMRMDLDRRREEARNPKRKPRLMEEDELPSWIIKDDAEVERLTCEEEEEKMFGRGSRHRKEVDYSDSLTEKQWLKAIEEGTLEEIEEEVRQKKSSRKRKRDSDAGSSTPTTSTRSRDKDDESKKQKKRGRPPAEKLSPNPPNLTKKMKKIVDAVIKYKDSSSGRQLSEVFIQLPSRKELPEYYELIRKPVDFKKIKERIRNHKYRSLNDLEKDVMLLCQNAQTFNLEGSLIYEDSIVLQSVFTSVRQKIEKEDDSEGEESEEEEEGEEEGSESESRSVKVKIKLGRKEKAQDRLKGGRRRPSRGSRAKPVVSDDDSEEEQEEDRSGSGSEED

In the case of `CCC12CNc3nnc(-c4cc(F)cc(F)c4O)cc3N1CCN(C(=O)C1(F)CCC(CN3CCN(c4ccc5c(c4)C(=O)N([C@H]4CCC(=O)NC4=O)C5)CC3)CC1)C2` (single isomer, unassigned) [Example 102], in assay [1], the DC50 was below 100 nM and the “SMARCA4 DMax %” value was “A (A=Dmax>75%)”. Moreover, in assay [2], the DC50 was below 100 nM and the Dmax is above 75%.

Take `CC12CNc3nnc(-c4cc(F)cc(F)c4O)cc3N1CCN(C(=O)C1(F)CCN(CC3CCN(c4ccc5c(c4)C(=O)N([C@H]4CCC(=O)NC4=O)C5)CC3)CC1)C2` (single isomer, unassigned) [Example 112]: in assay [1], the DC50 was below 100 nM and the “SMARCA4 DMax %” value was “A (A=Dmax>75%)”. In addition, in assay [2], the DC50 is below 100 nM and the Dmax was above 75%.

As to `O=C1CCC(N2Cc3ccc(N4CC[C@@H](CN5CC[C@@H](CN6CCN7c8cc(-c9cc(F)cc(F)c9O)nnc8NC[C@H]7C6)C5)C4)cc3C2=O)C(=O)N1` (stereo partly drawn) [Example 52, 3-(6-((S)-3-(((R)-3-(((S)-2-(3,5-difluoro-2-hydroxyphenyl)-5,6,6a,7,9,10-hexahydro-8H-pyrazino[1′,2′:4,5]pyrazino[2,3-c]pyridazin-8-yl)methyl)pyrrolidin-1-yl)methyl)pyrrolidin-1-yl)-1-oxoisoindolin-2-yl)piperidine-2,6-dione], the DC50 in assay [1] and in assay [2] was below 100 nM throughout. Besides, the Dmax in assay [1] is 50 to 75%; in assay [2], above 75%.

In assay [1], `CCC1CN(CC2CCN(c3ccc4c(c3)C(=O)N(C3CCC(=O)NC3=O)C4)CC2)CCN1C(=O)N1CCN2c3cc(-c4cc(F)cc(F)c4O)nnc3NC[C@H]2C1` (mixture of isomers) [Example 35, 3-(6-(4-((4-((S)-2-(3,5-difluoro-2-hydroxyphenyl)-6,6a,7,8,9,10-hexahydro-5H-pyrazino[1′,2′:4,5]pyrazino[2,3-c]pyridazine-8-carbonyl)-3-ethylpiperazin-1-yl)methyl)piperidin-1-yl)-1-oxoisoindolin-2-yl)piperidine-2,6-dione] came in with a DC50 below 100 nM and a Dmax of 50 to 75%. Besides, in assay [2], the DC50 was below 100 nM and the Dmax was above 75%.

In assay [1], `C[C@@H]1CN(CC2CCN(c3ccc4c(c3)C(=O)N(C3CCC(=O)NC3=O)C4)CC2)C[C@@H](C)N1C(=O)N1CCN2c3cc(-c4cccc(F)c4O)nnc3NCC2(C)C1` (single isomer, unassigned) [Example 13] displayed a DC50 below 100 nM and a Dmax below 50%. Besides, in assay [2], the DC50 was below 100 nM and the Dmax was above 75%.

In assay [1], `CC1(C)CN(CC2CCN(c3ccc4c(c3)C(=O)N([C@H]3CCC(=O)NC3=O)C4)CC2)CCN1C(=O)N1CCN2c3cc(-c4cccc(F)c4O)nnc3NC[C@]2(C(F)F)C1` [Example 65, (S)-3-(6-(4-((4-((R)-6a-(difluoromethyl)-2-(3-fluoro-2-hydroxyphenyl)-6,6a,7,8,9,10-hexahydro-5H-pyrazino[1′,2′:4,5]pyrazino[2,3-c]pyridazine-8-carbonyl)-3,3-dimethylpiperazin-1-yl)methyl)piperidin-1-yl)-1-oxoisoindolin-2-yl)piperidine-2,6-dione] displayed a DC50 below 100 nM and a Dmax of 50 to 75%. In assay [2], the DC50 was below 100 nM and the greatest degradation seen (Dmax) is above 75%.

For `CCC12CNc3nnc(-c4cccc(F)c4O)cc3N1CCN(C(=O)N1[C@H](C)CN(CC3CCN(c4ccc5c(c4)C(=O)N(C4CCC(=O)NC4=O)C5)CC3)C[C@@H]1C)C2` (single isomer, unassigned) [Example 88], in assay [1], the DC50 is below 100 nM and the “SMARCA4 DMax %” value is “A (A=Dmax>75%)”. Further, in assay [2], the “SMARCA2 DMax %” value is reported as “A (A=Dmax>75%)” and the DC50 is below 100 nM.

In assay [1], `CCC12CNc3nnc(-c4cccc(Cl)c4O)cc3N1CCN(C(=O)N1C[C@H](C)N(CC3CCN(c4ccc5c(c4)C(=O)N([C@H]4CCC(=O)NC4=O)C5)CC3)C[C@H]1C)C2` (single isomer, unassigned) [Example 77] displayed a DC50 below 100 nM and a Dmax of 50 to 75%. For the same molecule, in assay [2], the DC50 is below 100 nM and the Dmax was above 75%.

In assay [1], `CC1(C)CN(CC2CCN(c3ccc4c(c3)C(=O)N(C3CCC(=O)NC3=O)C4)CC2)CCN1C(=O)N1CCN2c3cc(-c4cccc(Cl)c4O)nnc3NCC2(C)C1` (mixture of isomers) [Example 31, 3-(6-(4-((4-(2-(3-chloro-2-hydroxyphenyl)-6a-methyl-6,6a,7,8,9,10-hexahydro-5H-pyrazino[1′,2′:4,5]pyrazino[2,3-c]pyridazine-8-carbonyl)-3,3-dimethylpiperazin-1-yl)methyl)piperidin-1-yl)-1-oxoisoindolin-2-yl)piperidine-2,6-dione] came in with a DC50 below 100 nM and a Dmax below 50%. In assay [2], the DC50 was below 100 nM and the greatest degradation seen (Dmax) lay in the range of 50 to 75%.

For the molecule `CCC12CNc3nnc(-c4cc(F)cc(F)c4O)cc3N1CCN(C(=O)N1[C@H](C)CN(CC3CCN(c4ccc5c(c4)C(=O)N(C4CCC(=O)NC4=O)C5)CC3)C[C@@H]1C)C2` (single isomer, unassigned) [Example 61], the DC50 in assay [1] and in assay [2] was below 100 nM each time.

Consider `O=C1CCC(N2Cc3cc(N4CC[C@@H](CN5CCC(CN6CCN7c8cc(-c9cc(F)cc(F)c9O)nnc8NC[C@H]7C6)CC5)C4)ccc3C2=O)C(=O)N1` (stereo partly drawn) [Example 53, 3-(5-((S)-3-((4-(((S)-2-(3,5-difluoro-2-hydroxyphenyl)-5,6,6a,7,9,10-hexahydro-8H-pyrazino[1′,2′:4,5]pyrazino[2,3-c]pyridazin-8-yl)methyl)piperidin-1-yl)methyl)pyrrolidin-1-yl)-1-oxoisoindolin-2-yl)piperidine-2,6-dione], for which, in assay [1], the DC50 is below 100 nM and the greatest degradation seen (Dmax) was 50 to 75%. Also, in assay [2], the DC50 is below 100 nM and the Dmax was above 75%.

With `CCC12CNc3nnc(-c4cccc(F)c4O)cc3N1CCN(C(=O)N1CCN(CC3CCN(c4ccc5c(c4)C(=O)N(C4CCC(=O)NC4=O)C5=O)CC3)CC1(C)C)C2` (mixture of isomers) [Example 32, 2-(2,6-dioxopiperidin-3-yl)-5-(4-((4-(6a-ethyl-2-(3-fluoro-2-hydroxyphenyl)-6,6a,7,8,9,10-hexahydro-5H-pyrazino[1′,2′:4,5]pyrazino[2,3-c]pyridazine-8-carbonyl)-3,3-dimethylpiperazin-1-yl)methyl)piperidin-1-yl)isoindoline-1,3-dione], in assay [1], the DC50 was below 100 nM and the Dmax is below 50%. In assay [2], the DC50 was below 100 nM and the maximal degradation (Dmax) is 50 to 75%.

In assay [1], `O=C1CC[C@H](N2Cc3ccc(N4CCC(CN5CCC(F)(C(=O)N6CCN7c8cc(-c9cc(F)cc(F)c9O)nnc8NC[C@]7(C(F)F)C6)CC5)CC4)cc3C2=O)C(=O)N1` [Example 105, (S)-3-(6-(4-((4-((R)-2-(3,5-difluoro-2-hydroxyphenyl)-6a-(difluoromethyl)-6,6a,7,8,9,10-hexahydro-5H-pyrazino[1′,2′:4,5]pyrazino[2,3-c]pyridazine-8-carbonyl)-4-fluoropiperidin-1-yl)methyl)piperidin-1-yl)-1-oxoisoindolin-2-yl)piperidine-2,6-dione] displayed a DC50 below 100 nM and a Dmax of 50 to 75%. In assay [2], the DC50 is below 100 nM and the Dmax was above 75%.
